Results as given in patent US10793580B2, “Substituted pyrazoloazepin-8-ones and their use as phosphodiesterase inhibitors” (LEO Pharma A/S, priority 2016, dated 2020).

Molecular target: human PDE4D catalytic domain (Homo sapiens (Human), UniProt Q08499)
Assay: PDE4 Assay (TR-FRET, FAM-cAMP cleavage)
Type: biochemical
Conditions: Table 16, Examples 277-296; read-out: PDE4 IC50 range
Experimental: The human PDE4D catalytic domain (UniProt no. Q08499 [S380-L740]) was incubated with a mixture of non-labelled cAMP (cyclic adenosine monophosphate) and fluorescein amidite (FAM) conjugated cAMP and titrated test or reference Compound. Following brief incubation the enzymatic reaction was stopped by addition of binding buffer containing nanoparticles with immobilized trivalent metal ions capable of binding 1) AMP phospho groups and 2) terbium (Tb) donor fluorophores. Subsequent excitation of the Tb donor triggers time-resolved FRET to adjacent FAM acceptor molecules resulting in light emission. In the presence of a PDE4 inhibitor, AMP generation was reduced resulting in a lower fluorescence signal. The cAMP phosphodiester is not bound by the detection system.
The results were calculated as the molar concentrations resulting in 50% inhibition of the substrate cleavage compared to controls samples, and are expressed as a range of IC50 (nM).

Chain of human PDE4D catalytic domain (Q08499 380-740): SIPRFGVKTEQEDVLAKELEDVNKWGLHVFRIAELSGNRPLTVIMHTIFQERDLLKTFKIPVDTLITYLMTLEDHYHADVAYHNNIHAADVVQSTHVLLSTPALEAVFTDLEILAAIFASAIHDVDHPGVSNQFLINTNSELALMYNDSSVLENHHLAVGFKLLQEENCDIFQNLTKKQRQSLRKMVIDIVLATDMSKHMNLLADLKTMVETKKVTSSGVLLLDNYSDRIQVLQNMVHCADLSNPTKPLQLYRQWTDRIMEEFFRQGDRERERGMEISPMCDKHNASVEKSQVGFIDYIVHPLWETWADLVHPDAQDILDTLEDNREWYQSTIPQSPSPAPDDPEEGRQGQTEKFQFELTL

| Structure (SMILES) | IC50 |
| --- | --- |
| CCn1nc(C[C@@H](C)COC(=O)c2cn(C)cn2)c2c1C(=O)NCC1(CCOCC1)C2 [Example 280, [(2R)-3-(1-ethyl-8-oxo-spiro[6,7-dihydro-4H-pyrazolo[3,4-c]azepine-5,4′-tetrahydropyran]-3-yl)-2-methyl-propyl] 1-methylimidazole-4-carboxylate] | < 0.1 µM |
| CCn1nc(C[C@@H](C)COC(=O)c2cnc(C)s2)c2c1C(=O)NCC1(CCOCC1)C2 [Example 291, [(2R)-3-(1-ethyl-8-oxo-spiro[6,7-dihydro-4H-pyrazolo[3,4-c]azepine-5,4′-tetrahydropyran]-3-yl)-2-methyl-propyl] 2-methylthiazole-5-carboxylate] | < 0.1 µM |
| CCn1nc(C[C@@H](C)COC(=O)c2cnc(C)o2)c2c1C(=O)NCC1(CCOCC1)C2 [Example 282, [(2R)-3-(1-ethyl-8-oxo-spiro[6,7-dihydro-4H-pyrazolo[3,4-c]azepine-5,4′-tetrahydropyran]-3-yl)-2-methyl-propyl] 2-methyloxazole-5-carboxylate] | < 0.1 µM |

Same assay, conditions: Table 17, Examples 297-316; read-out: PDE4 IC50 range

| Structure (SMILES) | IC50 |
| --- | --- |
| CCn1nc(CC(C)(C)COC(=O)c2cnsc2)c2c1C(=O)NCC1(CCOCC1)C2 [Example 304, [3-(1-ethyl-8-oxo-spiro[6,7-dihydro-4H-pyrazolo[3,4-c]azepine-5,4′-tetrahydro-pyran]-3-yl)-2,2-dimethyl-propyl] isothiazole-4-carboxylate] | < 0.1 µM |
| CCn1nc(CC(C)(C)COC(=O)c2cnc(C)s2)c2c1C(=O)NCC1(CCOCC1)C2 [Example 311, [3-(1-ethyl-8-oxo-spiro[6,7-dihydro-4H-pyrazolo[3,4-c]azepine-5,4′-tetrahydropyran]-3-yl)-2,2-dimethyl-propyl] 2-methylthiazole-5-carboxylate] | < 0.1 µM |
| CCn1nc(CC(C)(C)COC(=O)C2CCN(C(C)=O)CC2)c2c1C(=O)NCC1(CCOCC1)C2 [Example 314, [3-(1-ethyl-8-oxo-spiro[6,7-dihydro-4H-pyrazolo[3,4-c]azepine-5,4′-tetrahydropyran]-3-yl)-2,2-dimethyl-propyl] 1-acetylpiperidine-4-carboxylate] | < 0.1 µM |

Same assay, conditions: human PDE4D catalytic domain (UniProt Q08499 [S380-L740]); 50% inhibition of substrate cleavage; read-out: PDE4 IC50 range

| Structure (SMILES) | IC50 |
| --- | --- |
| CCn1nc(CCCOC(=O)c2cn(C)cn2)c2c1C(=O)NCC1(CCOCC1)C2 [Example 239, 3-(1-ethyl-8-oxo-spiro[6,7-dihydro-4H-pyrazolo[3,4-c]azepine-5,4′-tetrahydropyran]-3-yl)propyl 1-methylimidazole-4-carboxylate] | < 0.1 µM |
| CCn1nc(CCCOC(=O)c2ccccc2)c2c1C(=O)NCC1(CCOCC1)C2 [Example 7, 3-(1-ethyl-8-oxo-spiro[6,7-dihydro-4H-pyrazolo[3,4-c]azepine-5,4′-tetrahydropyran]-3-yl)propyl benzoate] | < 0.1 µM |
| CCn1nc(CCCOC(=O)c2ccc(C(=O)NC)cc2)c2c1C(=O)NCC1(CCOCC1)C2 [Example 105, 3-(1-ethyl-8-oxo-spiro[6,7-dihydro-4H-pyrazolo[3,4-c]azepine-5,4′-tetrahydro-pyran]-3-yl)propyl 4-(methylcarbamoyl)benzoate] | < 0.1 µM |
| CCn1nc(CCCOC(=O)c2cc(OC)ccc2C(F)(F)F)c2c1C(=O)NCC1(CCOCC1)C2 [Example 80, 3-(1-ethyl-8-oxo-spiro[6,7-dihydro-4H-pyrazolo[3,4-c]azepine-5,4′-tetrahydro-pyran]-3-yl)propyl 5-methoxy-2-(trifluoromethyl)benzoate] | < 0.1 µM |
| CCn1nc(CCCCOC(=O)c2cnsc2)c2c1C(=O)NCC1(CCOCC1)C2 [Example 268, 4-(1-ethyl-8-oxo-spiro[6,7-dihydro-4H-pyrazolo[3,4-c]azepine-5,4′-tetrahydropyran]-3-yl)butyl isothiazole-4-carboxylate] | < 0.1 µM |
| CCn1nc(CCCOC(=O)c2cccc(C(C)=O)c2)c2c1C(=O)NCC1(CCOCC1)C2 [Example 28, 3-(1-ethyl-8-oxo-spiro[6,7-dihydro-4H-pyrazolo[3,4-c]azepine-5,4′-tetrahydropyran]-3-yl)propyl 3-acetylbenzoate] | < 0.1 µM |
| CCn1nc(C[C@@H](C)COC(=O)CCOC)c2c1C(=O)NCC1(CCOCC1)C2 [Example 137, [(2R)-3-(1-ethyl-8-oxo-spiro[6,7-dihydro-4H-pyrazolo[3,4-c]azepine-5,4′-tetrahydropyran]-3-yl)-2-methyl-propyl] 3-methoxypropanoate] | < 0.1 µM |
| CCn1nc(CCCOC(=O)c2ccc(F)c(OC)c2)c2c1C(=O)NCC1(CCOCC1)C2 [Example 36, 3-(1-ethyl-8-oxo-spiro[6,7-dihydro-4H-pyrazolo[3,4-c]azepine-5,4′-tetrahydropyran]-3-yl)propyl 4-fluoro-3-methoxy-benzoate] | < 0.1 µM |
| CCn1nc(CCCOC(=O)c2cnc(C)s2)c2c1C(=O)NCC1(CCOCC1)C2 [Example 255, 3-(1-ethyl-8-oxo-spiro[6,7-dihydro-4H-pyrazolo[3,4-c]azepine-5,4′-tetrahydropyran]-3-yl)propyl 2-methylthiazole-5-carboxylate] | < 0.1 µM |
| CCn1nc(CCCCOC(=O)c2ccc(C(=O)NC)cc2)c2c1C(=O)NCC1(CCOCC1)C2 [Example 128, 4-(1-ethyl-8-oxo-spiro[6,7-dihydro-4H-pyrazolo[3,4-c]azepine-5,4′-tetrahydropyran]-3-yl)butyl 4-(methyl-carbamoyl)benzoate] | < 0.1 µM |
| CCn1nc(CCCOC(=O)c2cc(OC)ccc2Cl)c2c1C(=O)NCC1(CCOCC1)C2 [Example 56, 3-(1-ethyl-8-oxo-spiro[6,7-dihydro-4H-pyrazolo[3,4-c]azepine-5,4′-tetrahydropyran]-3-yl)propyl 2-chloro-5-methoxy-benzoate] | < 0.1 µM |
| CCn1nc(CC(C)(C)COC(=O)c2cccc(C(C)=O)c2)c2c1C(=O)NCC1(CCOCC1)C2 [Example 201, [3-(1-ethyl-8-oxo-spiro[6,7-dihydro-4H-pyrazolo[3,4-c]azepine-5,4′-tetrahydropyran]-3-yl)-2,2-dimethyl-propyl] 3-acetylbenzoate] | < 0.1 µM |
| CCn1nc(CCCCOC(=O)c2ccc(C)cc2)c2c1C(=O)NCC1(CCOCC1)C2 [Example 123, 4-(1-ethyl-8-oxo-spiro[6,7-dihydro-4H-pyrazolo[3,4-c]azepine-5,4′-tetrahydropyran]-3-yl)butyl 4-methylbenzoate] | < 0.1 µM |
| CCn1nc(CCCOC(=O)c2ccccc2S(C)(=O)=O)c2c1C(=O)NCC1(CCOCC1)C2 [Example 64, 3-(1-ethyl-8-oxo-spiro[6,7-dihydro-4H-pyrazolo[3,4-c]azepine-5,4′-tetrahydropyran]-3-yl)propyl 2-methylsulfonylbenzoate] | < 0.1 µM |
| CCn1nc(C[C@@H](C)COC(=O)c2ccc(S(=O)(=O)NC)cc2)c2c1C(=O)NCC1(CCOCC1)C2 [Example 158, [(2R)-3-(1-ethyl-8-oxo-spiro[6,7-dihydro-4H-pyrazolo[3,4-c]azepine-5,4′-tetrahydropyran]-3-yl)-2-methyl-propyl] 4-(methylsulfamoyl)benzoate] | < 0.1 µM |
| CCn1nc(C[C@@H](C)COC(=O)c2ccc(C(C)=O)cc2)c2c1C(=O)NCC1(CCOCC1)C2 [Example 153, [(2R)-3-(1-ethyl-8-oxo-spiro[6,7-dihydro-4H-pyrazolo[3,4-c]azepine-5,4′-tetrahydropyran]-3-yl)-2-methyl-propyl] 4-acetylbenzoate] | < 0.1 µM |
